Data published in patent publication US11484567B2, “Use of immune suppressive domains as medicaments” (iSD Immunotech ApS, priority 2013, dated 2022).

Experiments:
STING [1] = molecular target: T1, STING (Homo sapiens, UniProt Q86WV6); assay: Pulldown of HA-tagged STING C-terminal domain with biotinylated INF ISD peptide and streptavidin coated beads, immunoblot; assay type: binding
T1 construct: the C-terminal domain of STING was expressed with a HA-tag in HEK293 cells; expressed in transfected cells; host or cells: HEK293
T1 sequence (Q86WV6 162-379): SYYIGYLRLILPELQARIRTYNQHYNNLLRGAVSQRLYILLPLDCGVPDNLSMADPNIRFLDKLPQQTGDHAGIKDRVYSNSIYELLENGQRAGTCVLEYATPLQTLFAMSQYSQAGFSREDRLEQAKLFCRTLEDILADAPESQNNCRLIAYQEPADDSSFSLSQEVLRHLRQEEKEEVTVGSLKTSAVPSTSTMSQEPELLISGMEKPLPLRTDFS

STING [2] = assay: as above; assay type: binding
BMDCs = assay: Cytokine release (type I IFN bioassay) from LPS-treated BMDCs pretreated with peptide; assay type: cell-based

GLFGAIAGFIENGWEGCGGEKEKEK [INF ISD peptide]
pulldown of STING deletion mutant DN5 (162-N) (STING [1]): readily pulled down | pulldown of wt STING (STING [2]): readily pulled down | amounts of cytokines released by cells treated with LPS (FIG. 9) (BMDCs; BMDCs treated with LPS for 16 hours, pretreated with peptide, supernatants analyzed for type I IFN using bioassay): significantly lower amounts of cytokines | release of cytokines including pro-inflammatory cytokines such as TNFalpha and IL-6 (BMDCs; pretreatment of cells with peptide, LPS (Example 3)): decrease in the release of cytokines
